ChEMBL document CHEMBL5537136 (J Med Chem, 2024)

Assays:
[1] = MRT (0 to infinity) in ICR mouse at 1 mg/kg, iv measured upto 24 hrs by LC-MS/MS analysis; type: ADME, organism-based; settings: in vivo
[2] = Apparent volume of distribution in ICR mouse at 1 mg/kg, iv measured upto 24 hrs by LC-MS/MS analysis; type: ADME, organism-based; settings: in vivo, read-out: Vz
[3] = C0 in ICR mouse at 1 mg/kg, iv measured upto 24 hrs by LC-MS/MS analysis; type: ADME, organism-based; settings: in vivo
CT26 [4] = experiment: Antitumor activity in immunocompetent mouse CT26 cell bearing Balb/c mouse model assessed as induction of IFN-beta mRNA expression in tumor tissue treated IG twice a day measured after 14 days by quantitative real-time PCR analysis; type: functional; settings: dose lower 6.25 mg/kg, dose upper […], time 14.0 day
[5] = Cmax in ICR mouse at 10 mg/kg, IG measured upto 24 hrs by LC-MS/MS analysis; type: ADME, organism-based; settings: in vivo, po
CT26 [6] = experiment: cells; settings: Mus musculus, CT26, 144 h
[7] = Permeability across basolateral to apical side in human Caco-2 cells; type: ADME, cell-based
CT26 [8] = experiment: Antitumor activity in immunocompetent mouse CT26 cell bearing mouse model assessed as tumor growth inhibition at 12.5 mg/kg, IG treated twice a day measured after 14 days relative to control; type: functional; settings: CT26, po, 336 h, time 14 day, read-out: TGI

`C[C@@H](C(=O)N1CCN(c2ncc(C(F)(F)F)cn2)CC1)n1cc2cccc(C(N)=O)c2n1` showed an MRT inf [1] of 1.52 h, a Vd [2] of 0.978 L/kg and a C0 at 24 h [3] of 1590 ng/mL. The Activity (CT26 [4]) was “Dose-Dependent Effect”, the Cmax [5] was 7350 ng/mL and the IC50 (CT26 [6]) was 36.1 µM. It also gave a Papp B→A [7] of 20.7 ×10⁻⁶ cm/s and an inhibition in vivo at 12.5 mg/kg (CT26 [8]) of 53%.
